Measured values taken from patent US9913820B2, “Antimicrobial compositions comprising glyceryl nitrates” (Board of Regents, The University of Texas System, priority 2012, dated 2018).
Read-outs that look alike come from different tables or passages of the source.

Experiments:
[1] = system: Methicilin resistant Staphyloccus aureus (MRSA) biofilm; assay: Modified Kuhns Biofilm Eradication Model (silicone discs), MRSA; type: cell-based; conditions: for viable colonies recovered from the biofilm eradication procedure: MRSA, 2 hrs; for GTN concentration required to eradicate MRSA: 7% citrate
[2] = system: Candida albicans (CA) biofilm; assay: Modified Kuhns Biofilm Eradication Model (silicone discs), CA; type: cell-based; conditions: for viable colonies recovered from the biofilm eradication procedure: CA, 2 hrs
[3] = system: Pseudomonas aeruginosa (PA) biofilm; assay: Modified Kuhns Biofilm Eradication Model (silicone discs), PA; type: cell-based; conditions: for viable colonies recovered from the biofilm eradication procedure: PA, 2 hrs
[4] = system: Staphylococcus aureus, Pseudomonas aeruginosa and Candida albicans biofilms; conditions: in the presence of ethanol and citrate
[5] = 10% ethanol and 7% citrate, FIG. 5

SMILES: O=C(O)CC(O)(CC(=O)O)C(=O)O [Citrate]
- viable colonies recovered from the biofilm eradication procedure ([1]; component alone at 7%): 2.92E+04 cfu/ml
- viable colonies recovered from the biofilm eradication procedure ([2]; component alone at 7%): 2.16E+04 cfu/ml
- eradication of mature biofilm within 2 hours (in words) ([2]; Candida Albicans, 7% alone): neither 1 mg/ml GTN nor 7% citrate alone were able to eradicate
- viable colonies recovered from the biofilm eradication procedure ([3]; component alone at 7%): 2.24E+04 cfu/ml
- eradication of mature biofilm within 2 hours (in words) ([3]; Pseudomonas Aeruginosa, 7% alone): neither 1 mg/ml GTN nor 7% citrate alone were able to eradicate

SMILES: CCN(CC)C(=S)SSC(=S)N(CC)CC [Disulfiram]
- viable colonies recovered from the biofilm eradication procedure ([1]; component alone at 0.2 mg/ml): 2.00E+04 cfu/ml
- viable colonies recovered from the biofilm eradication procedure ([2]; component alone at 0.2 mg/ml): 0.00E+00 cfu/ml
- viable colonies recovered from the biofilm eradication procedure ([3]; component alone at 0.2 mg/ml): 5.00E+05 cfu/ml

SMILES: O=[N+]([O-])OCC(CO[N+](=O)[O-])O[N+](=O)[O-] [GTN, glyceryl trinitrate]
- GTN concentration that fully eradicated MRSA [1, 5]: 0.5 mg/mL
- GTN concentration required to eradicate MRSA ([1]; 15% ethanol, FIG. 6): 0.2 mg/mL
- GTN concentration required to eradicate MRSA ([1]; 20% ethanol, FIG. 7): 0.1 mg/mL
- viable colonies recovered from the biofilm eradication procedure ([1]; component alone at 1 mg/ml): 5.00E+03 cfu/ml
- GTN concentration to fully eradicate mature biofilms within 2 hours [4]: 100 microgram/ml
- reduction of GTN concentration versus what would be needed by itself ([4]; full eradication within 2 hours): 10 fold
- eradication of mature biofilm within 2 hours (in words) [2]: neither 1 mg/ml GTN nor 7% citrate alone were able to eradicate
- GTN concentration that eradicated C. albicans [2, 5]: 0.2 mg/mL
- viable colonies recovered from the biofilm eradication procedure ([2]; component alone at 1 mg/ml): 5.00E+03 cfu/ml
- eradication of mature biofilm within 2 hours (in words) [3]: neither 1 mg/ml GTN nor 7% citrate alone were able to eradicate
- GTN concentration that eradicated P.aeruginosa [3, 5]: 0.2 mg/mL
- viable colonies recovered from the biofilm eradication procedure ([3]; component alone at 1 mg/ml): 2.05E+03 cfu/ml

SMILES: O=S(=O)(O)CCS [MesNA]
- viable colonies recovered from the biofilm eradication procedure ([1]; component alone at 5%): 5.00E+05 cfu/ml
- viable colonies recovered from the biofilm eradication procedure ([2]; component alone at 5%): 5.00E+05 cfu/ml
- viable colonies recovered from the biofilm eradication procedure ([3]; component alone at 5%): 5.00E+05 cfu/ml
